pEC50, pIC50: −log10 of the molar value. Converted amounts (≈) assume the structure as drawn.
How the values were obtained:
[1] = tested on: other mGlu receptors (mGlu1–4,6–8, except mGlu3); test: selectivity profiling against the other mGlu receptors; type: cell-based; settings: read-out: other mGlu EC50; mGlu receptors other than mGlu5 and mGlu3
[2] = molecular target: T1, mGlu3 (Homo sapiens, UniProt Q14832); test: cell-based
[3] = molecular target: CYP2C9 (Homo sapiens, UniProt P11712); test: CYP inhibition cocktail assay using HLM and known substrates
Sequence of CYP2C9 (P11712 whole entry): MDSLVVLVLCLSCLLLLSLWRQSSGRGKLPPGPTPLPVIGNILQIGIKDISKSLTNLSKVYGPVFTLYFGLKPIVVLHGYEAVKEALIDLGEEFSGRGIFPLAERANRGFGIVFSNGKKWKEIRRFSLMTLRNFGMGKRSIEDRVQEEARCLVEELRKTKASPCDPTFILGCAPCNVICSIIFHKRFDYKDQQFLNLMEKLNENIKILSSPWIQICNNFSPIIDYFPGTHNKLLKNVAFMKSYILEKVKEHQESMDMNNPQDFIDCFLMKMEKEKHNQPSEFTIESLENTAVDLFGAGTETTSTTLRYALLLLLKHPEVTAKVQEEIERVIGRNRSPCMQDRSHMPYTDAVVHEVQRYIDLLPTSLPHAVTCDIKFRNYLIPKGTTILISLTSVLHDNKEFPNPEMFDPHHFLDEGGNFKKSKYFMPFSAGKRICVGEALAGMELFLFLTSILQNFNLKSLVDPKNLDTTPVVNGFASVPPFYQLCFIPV

[4] = molecular target: CYP2D6 (Homo sapiens, UniProt P10635); test: as above
Sequence of CYP2D6 (P10635 whole entry): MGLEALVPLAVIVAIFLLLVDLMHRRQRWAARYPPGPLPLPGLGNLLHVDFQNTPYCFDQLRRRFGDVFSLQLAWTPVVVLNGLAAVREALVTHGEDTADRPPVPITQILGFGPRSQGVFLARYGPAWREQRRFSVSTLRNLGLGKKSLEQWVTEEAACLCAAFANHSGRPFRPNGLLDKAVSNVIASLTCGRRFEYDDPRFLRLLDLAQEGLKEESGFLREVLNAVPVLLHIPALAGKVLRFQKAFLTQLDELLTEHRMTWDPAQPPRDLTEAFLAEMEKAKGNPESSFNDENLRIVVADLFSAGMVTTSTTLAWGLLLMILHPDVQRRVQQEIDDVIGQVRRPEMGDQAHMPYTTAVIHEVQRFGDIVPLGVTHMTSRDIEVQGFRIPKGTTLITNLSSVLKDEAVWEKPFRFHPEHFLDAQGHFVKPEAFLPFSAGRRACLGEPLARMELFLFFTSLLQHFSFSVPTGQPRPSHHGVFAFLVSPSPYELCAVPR

[5] = molecular target: CYP3A4 (Homo sapiens, UniProt P08684); test: as above
Sequence of CYP3A4 (P08684 whole entry): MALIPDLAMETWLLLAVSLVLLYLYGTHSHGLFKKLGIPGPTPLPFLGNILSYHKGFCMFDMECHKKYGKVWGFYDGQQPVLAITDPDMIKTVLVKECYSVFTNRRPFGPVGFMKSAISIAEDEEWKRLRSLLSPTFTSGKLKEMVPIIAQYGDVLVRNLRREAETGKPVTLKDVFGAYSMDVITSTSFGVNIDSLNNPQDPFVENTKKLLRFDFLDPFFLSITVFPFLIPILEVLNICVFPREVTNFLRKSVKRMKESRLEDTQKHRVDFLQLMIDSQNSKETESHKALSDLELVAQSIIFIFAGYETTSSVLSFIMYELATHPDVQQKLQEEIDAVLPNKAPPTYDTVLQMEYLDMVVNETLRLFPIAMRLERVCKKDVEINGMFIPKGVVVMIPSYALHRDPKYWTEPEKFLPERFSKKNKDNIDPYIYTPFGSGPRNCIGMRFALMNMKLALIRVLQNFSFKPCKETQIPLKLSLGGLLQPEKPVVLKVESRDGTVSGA

[6] = molecular target: T2, CYP1A2 (Homo sapiens, UniProt P05177); test: as above
T2 sequence (P05177 1-516): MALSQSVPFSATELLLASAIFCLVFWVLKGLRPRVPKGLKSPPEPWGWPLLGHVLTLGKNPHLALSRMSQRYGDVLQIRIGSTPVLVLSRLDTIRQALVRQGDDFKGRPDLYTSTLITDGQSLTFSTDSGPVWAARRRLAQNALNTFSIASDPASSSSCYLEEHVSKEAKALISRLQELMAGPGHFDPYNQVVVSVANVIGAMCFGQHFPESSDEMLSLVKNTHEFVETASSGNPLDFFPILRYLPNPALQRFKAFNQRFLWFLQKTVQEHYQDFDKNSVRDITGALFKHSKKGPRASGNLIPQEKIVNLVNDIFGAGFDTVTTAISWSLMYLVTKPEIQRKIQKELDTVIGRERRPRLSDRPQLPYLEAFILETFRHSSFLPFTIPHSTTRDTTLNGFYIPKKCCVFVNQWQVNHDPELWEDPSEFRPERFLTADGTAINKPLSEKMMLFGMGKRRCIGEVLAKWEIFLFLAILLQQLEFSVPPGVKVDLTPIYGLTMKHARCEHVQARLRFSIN

[7] = molecular target: rat mGlu5 receptors (Rattus norvegicus, UniProt P31424); test: 'triple add' calcium mobilization assay, mGlu5 PAM/NAM/agonist modes; type: cell-based; settings: for fold increase in mGlu5 potency vs series 3 counterpart: dihydro analogue 4 vs corresponding analogue 3
Sequence of rat mGlu5 receptors (P31424 21-1203): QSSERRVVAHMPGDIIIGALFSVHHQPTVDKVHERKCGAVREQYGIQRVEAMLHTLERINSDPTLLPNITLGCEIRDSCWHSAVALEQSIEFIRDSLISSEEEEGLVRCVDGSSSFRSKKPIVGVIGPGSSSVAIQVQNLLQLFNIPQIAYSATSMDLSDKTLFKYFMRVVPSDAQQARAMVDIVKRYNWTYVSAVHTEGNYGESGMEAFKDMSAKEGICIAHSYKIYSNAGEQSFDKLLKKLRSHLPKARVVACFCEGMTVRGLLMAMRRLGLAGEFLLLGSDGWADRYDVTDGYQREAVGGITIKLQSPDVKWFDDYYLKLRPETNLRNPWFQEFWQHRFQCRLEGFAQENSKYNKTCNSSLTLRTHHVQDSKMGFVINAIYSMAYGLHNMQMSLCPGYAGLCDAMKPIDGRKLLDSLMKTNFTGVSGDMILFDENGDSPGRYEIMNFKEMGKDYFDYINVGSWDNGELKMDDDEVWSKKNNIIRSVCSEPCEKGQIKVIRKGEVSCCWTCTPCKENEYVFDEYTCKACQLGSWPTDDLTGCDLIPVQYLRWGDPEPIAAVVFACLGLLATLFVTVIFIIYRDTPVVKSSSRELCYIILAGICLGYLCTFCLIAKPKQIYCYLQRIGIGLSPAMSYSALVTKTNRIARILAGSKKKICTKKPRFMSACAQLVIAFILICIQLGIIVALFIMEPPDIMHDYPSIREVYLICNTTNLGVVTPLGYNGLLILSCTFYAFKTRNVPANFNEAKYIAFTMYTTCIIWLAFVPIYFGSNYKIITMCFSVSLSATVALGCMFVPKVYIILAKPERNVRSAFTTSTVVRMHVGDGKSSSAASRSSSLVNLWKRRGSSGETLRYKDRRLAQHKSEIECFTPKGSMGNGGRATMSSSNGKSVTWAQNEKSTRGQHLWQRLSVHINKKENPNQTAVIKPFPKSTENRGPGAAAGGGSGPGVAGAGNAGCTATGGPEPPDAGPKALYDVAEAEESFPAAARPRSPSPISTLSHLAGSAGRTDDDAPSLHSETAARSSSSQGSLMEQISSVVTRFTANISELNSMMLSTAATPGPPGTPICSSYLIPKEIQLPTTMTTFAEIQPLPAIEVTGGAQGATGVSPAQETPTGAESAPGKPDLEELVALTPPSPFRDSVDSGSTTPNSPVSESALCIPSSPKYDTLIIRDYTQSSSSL

[8] = tested on: rats; test: adverse effects in rats; type: in vivo, rat
[9] = tested on: dogs; test: adverse effects in in vivo PK studies in dogs; set-up: species or system dog; settings: 0.5 mg/mL i.v.
[10] = solubility in fasted simulated intestinal fluid; type: physicochemical; settings: fasted simulated intestinal fluid (FaSSIF), pH 7.2, fassif
[11] = molecular target: T1, mGlu3; settings: NAM
[12] = in vivo PK study in rats; settings: rat
[13] = tested on: amphetamine-induced hyperlocomotion; test: reversal of amphetamine-induced hyperlocomotion; settings: rat

T1 sequence (Q14832 23-879): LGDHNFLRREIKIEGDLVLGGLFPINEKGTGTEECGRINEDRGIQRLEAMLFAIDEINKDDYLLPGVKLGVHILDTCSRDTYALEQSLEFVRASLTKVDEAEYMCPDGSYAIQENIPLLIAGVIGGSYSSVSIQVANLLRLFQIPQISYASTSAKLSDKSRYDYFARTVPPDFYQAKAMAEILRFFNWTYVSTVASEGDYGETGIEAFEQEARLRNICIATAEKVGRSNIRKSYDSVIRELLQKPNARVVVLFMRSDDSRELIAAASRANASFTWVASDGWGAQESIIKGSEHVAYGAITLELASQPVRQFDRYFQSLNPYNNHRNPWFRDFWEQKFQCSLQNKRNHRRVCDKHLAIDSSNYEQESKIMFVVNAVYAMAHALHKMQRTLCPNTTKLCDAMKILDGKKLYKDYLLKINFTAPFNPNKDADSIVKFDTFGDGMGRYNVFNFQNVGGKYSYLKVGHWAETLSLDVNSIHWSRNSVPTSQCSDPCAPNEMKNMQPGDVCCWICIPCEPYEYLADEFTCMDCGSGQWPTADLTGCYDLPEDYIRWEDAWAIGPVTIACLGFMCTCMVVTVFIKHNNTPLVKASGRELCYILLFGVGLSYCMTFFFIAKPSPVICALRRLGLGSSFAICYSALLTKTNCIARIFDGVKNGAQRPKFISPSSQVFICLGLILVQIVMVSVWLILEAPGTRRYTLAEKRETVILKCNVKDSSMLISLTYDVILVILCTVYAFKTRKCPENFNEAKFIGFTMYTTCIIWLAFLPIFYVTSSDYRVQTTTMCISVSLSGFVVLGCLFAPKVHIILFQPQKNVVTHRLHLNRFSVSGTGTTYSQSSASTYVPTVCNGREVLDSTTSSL

O=c1n(-c2ccc(F)cc2)ccc2nc(COc3ccccc3)cn12 [3e]
pEC50 [1]: < 5.00
pEC50 [2]: 6.20
pIC50 [3]: < 4.70
pIC50 [4]: < 4.70
pIC50 [5]: < 4.70
pIC50 [6]: 5.03

O=C1N(c2ccc(F)cc2)CCc2nc(COc3ccccc3)cn21 [4a]
mGlu5 agonistic activity ([7]; up to the highest concentration tested of 30 µM): lack of mGlu5 agonistic activity
pEC50 [1]: < 5.00
CNS-mediated side effects, modified Irwin neurological test battery ([8]; 120 mg/kg): pro-convulsive behavior
adverse effects in PK and pharmacological experiments ([8]; up to 100 mg/kg p.o.): no significant adverse effects
CNS-mediated side effects in PK studies [9]: dizziness
solubility [10]: 6 µg/mL (≈ 17.8 µM)
mGlu3 % Glu Max [11]: 3%
pEC50 [2]: 6.54
clearance ([12]; in vivo, 1 mg/kg): 23.3 mL/min/kg
brain AUC ([12]; 0.5-7.0 h): 12.7 µM-h
lowest active oral dose, reversal of AIH [13]: 3 mg/kg

O=C1N(c2cccc(F)c2)CCc2nc(COc3ccccc3)cn21 [4b]
fold increase in mGlu5 potency vs series 3 counterpart [7]: 1.8–2.4 fold

Cc1cc(N2CCc3nc(COc4ccccc4)cn3C2=O)ccc1F [4c]
fold increase in mGlu5 potency vs series 3 counterpart [7]: 1.8–2.4 fold

O=C1N(c2ccc(F)cc2)CCc2nc(COc3cccc(F)c3)cn21 [4h]
fold increase in mGlu5 potency vs series 3 counterpart [7]: ≤ 3.3 fold

O=C1N(c2ccc(F)cc2)CCc2nc(COc3ccc(F)cc3)cn21 [4i]
fold increase in mGlu5 potency vs series 3 counterpart [7]: ≤ 3.3 fold

Reference: publication PMC4399811 (Bioorganic & medicinal chemistry letters, 2015)
